Data on two molecules can be found in patent US11241396B2 (Gateway Health Alliances, Inc., priority 2015, dated 2022).

Data set [1] concerns human umbilical vein endothelial cells. As to conditions: 1 μM; cited from earlier work.
Data set [2] deals with platelets. The settings on record: 10 mg daily for three months; cited from earlier work.
The subject of data set [3] is platelets. In words: Platelet function by whole blood/optical lumi-aggregometer after capsule intake. The data set is classed as in vivo, human. Here is the method: Platelet reactivity during clinical screening was assessed by a PFA-100 (Siemens, Deerfield, Ill.), which measures platelet function by simulating arterial hemostasis under blood flow shear stress. During the intervention, platelet function was assessed by a whole blood/optical lumi-aggregometer (Chrono-log Model 700, Havertown, Pa.). Briefly, platelet aggregation was measured via electrical impedence (or electrical resistance), whereas lumi-aggregometry was used to examine aggregation together with adenosine triphosphate (hereafter, “ATP”) release, which is determined with firefly luciferin-luciferase system. […] One of the following agonists was used to stimulate platelets: collagen (1 μL and 5 μL), AA (10 μL) or ADP (10 μL). ATP release was measured only when platelets were activated with ADP. The aggregation was measured over a period of six minutes, following the addition of an agonist.

Data set [4] can be described thus: Plasma resveratrol concentrations (HPLC) after capsule intake. It is filed as in vivo, human. The settings on record: 90 mg, median (interquartile range), n=30. On the procedure:
The study included two separate investigations: a one hour study and a two hour study (FIG. 1). […] The two hour study was designed to fully assess and compare the responses to trans-res and ResArgin™.
Participants were randomized by block design to consumed trans-res or ResArgin™ in random order. Randomization was performed by the study coordinator following a predetermined plan formulated via a web-based random number generator. […] The study included two separate investigations: a one hour study and a two hour study (FIG. 6). During each study visit, which took place after an overnight fast, a baseline measurement of PAT and a blood sample were collected, followed by consumption of the assigned treatment. During the one hour study, PAT measurements and blood samples were collected thirty and sixty minutes after the capsules were consumed. During the two hour study, a PAT measurement and blood sample were taken two hours after the capsules were consumed.
Briefly, plasma was treated with acidified methanol [0.5% (v/v) of acetic acid in methanol; precooled to −20° C.] containing an appropriate recovery standard. The mixture was stored at −80 C for 12 hours to allow for cryo-assisted protein precipitation, and then centrifuged for 15 min at 16,500×g. […]

The test system of data set [5] is humans. As to conditions: cited from earlier work.
In the next data set the test system is cyclooxygenase (COX). As to conditions: in vitro studies; cited from earlier work.
Data set [6] has as its system platelets. The settings on record: 10-1,000 μM in vitro; cited from earlier work.
A further data set has as its system postmenopausal women. Briefly: Microvascular function by peripheral arterial tonometry (Endo-PAT2000), randomized double-blind crossover trial. The data set is classed as in vivo, human. As to conditions: combined data; univariate ANOVA with Bonferroni post hoc.
In data set [7] the test system is platelets. The settings on record: 4 mg/kg/day; cited from earlier work.
The next data set concerns animal. The settings on record: 500 mg/kg, bw/day for 3 months dosing; cited from earlier work.
The subject of data set [8] is humans. As to conditions: cited from earlier work. The source holds these as a separate data set.
Where [9] appears, read: 1 μL collagen, one hour post consumption vs baseline.
Where [10] appears, read: 10 μL arachidonic acid, one hour after intake vs baseline.
Where [11] appears, read: 10 mg per day for three months, stable coronary artery disease patients.

SMILES strings stand for the structures. Entries after “also recorded” stand apart in the source; their conditions may differ. Where two headings read alike, the source gives them in different places.

On to `Oc1ccc(/C=C/c2cc(O)cc(O)c2)cc1` [trans-res, Trans-resveratrol], for which, in data set [1], the “Expression of eNOS” value is listed as “up-regulated”. The Platelet aggregation result is recorded as “significantly reduced” with platelets [2] and “significantly reduced aggregation in a dose dependent fashion” in the data set with platelets [6]. Besides, the “Lag time of platelet aggregation” value in the data set on platelets [3] (setting [9]) was “significant increase”. For the same molecule, the “Slope of platelet aggregation” value in the data set on platelets [3] (setting [9]) is given as “not for the trans-res group”. Also, the Platelet function changes entry in the data set with platelets [3] (5 μL collagen, one hour post consumption vs baseline) is given as “no significant changes”. For the same molecule, in the data set on platelets [3] (10 μL ADP, one hour post consumption vs baseline), the “Slope, lumi-aggregometry” value was “significant decrease”. Further, the “Area under the curve (AUC) of aggregation” value in the data set on platelets [3] (setting [10]) is “no changes were noted”. In addition, in the data set on platelets [3] (setting [10]), the Maximum aggregation entry is on record as “no changes were noted”. Moreover, the Plasma resveratrol concentration in data set [4] (30 minutes after intake) is listed as 2.04 (0.82, 2.54); in data set [4] (60 minutes after intake), 2.65 (1.69, 3.44). Further, the FMD entry is “significant improvement in FMD” with humans [5] (setting [11]); “significant increase in FMD” in the data set with humans [5] (75 mg daily for six weeks); “significant increase in FMD” in the data set with humans [5] (75 mg, one hour post-consumption); “increase in FMD” in the data set with humans [5] (single dose of 30, 90 and 270 mg, one hour after consumption). Also, the “Cyclooxygenase (COX) activity” value with cyclooxygenase (COX) was “can inhibit”. Moreover, in the data set on postmenopausal women, the “FRHI one and two hours post-consumption compared to baseline (significance)” value is on record as “No differences were observed; also recorded: no changes were noted”. Moreover, in the data set on postmenopausal women, the “RHI one hour after intake compared to baseline (significance)” value is recorded as “not observed”.
In the case of `Oc1ccc(C=Cc2cc(O)cc(O)c2)cc1` [Resveratrol, 3,5,4′-trihydroxystilbene], the FMD result with humans [5] (setting [11]) and with humans [5] (75 mg daily for six weeks) was “enhanced FMD response” each time. In the data set with platelets [7], the ADP-induced platelet aggregation result was “inhibited”. Also, the “Toxicity in animal studies” value in the data set on animal was “no toxicity effect”. In addition, the “Plasminogen activator inhibitor type 1 (PAI-1)” value with humans [8] (8 mg daily for six months, then 16 mg per day for six months) is “significant decrease”. In the data set with humans [8] (250 mg for three months), the Total cholesterol result is on record as “decrease”. Moreover, in the data set on humans [8] (daily intake of 8 mg for six months), the “Low density lipoprotein (LDL) cholesterol” value is “Reduction”.
